Reference: ChEMBL document CHEMBL1154761 (J Med Chem, 2010)

Experiments:
[1] = Dissociation constant, pKa of the compound; format: physicochemical
Beta-secretase 1 [2] = molecular target: T1, Beta-secretase 1 (Homo sapiens, UniProt P56817); assay: Inhibition of BACE1 mediated human Swedish amyloid precursor protein peptide hydrolysis at 500 uM by HTRF assay
[3] = Ratio of drug level in brain to plasma of rat at 10 mg/kg, po; format: ADME, organism-based; set-up: dose 10 mg/kg, route oral
Cathepsin D [4] = molecular target: T2, Cathepsin D (Homo sapiens, UniProt P07339); assay: Inhibition of human cathepsin D at 50 uM preincubated for 30 mins
T2 sequence (P07339 65-162 limits assumed): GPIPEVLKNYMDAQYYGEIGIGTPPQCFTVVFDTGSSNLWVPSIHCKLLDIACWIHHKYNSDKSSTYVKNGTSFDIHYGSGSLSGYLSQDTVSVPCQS
T2 sequence (P07339 169-412 limits assumed): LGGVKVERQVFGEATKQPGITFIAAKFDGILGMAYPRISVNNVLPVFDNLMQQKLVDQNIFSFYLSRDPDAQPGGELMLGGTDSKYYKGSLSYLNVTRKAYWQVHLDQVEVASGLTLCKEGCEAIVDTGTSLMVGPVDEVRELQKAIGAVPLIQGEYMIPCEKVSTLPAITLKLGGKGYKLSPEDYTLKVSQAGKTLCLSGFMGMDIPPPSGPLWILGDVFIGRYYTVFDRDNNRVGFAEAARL

in vivo = conditions: rat, plasma, po, 10 mg/kg
Beta-secretase 1 [5] = molecular target: T1, Beta-secretase 1
Description: Inhibition of BACE1 mediated human Swedish amyloid precursor protein peptide hydrolysis by HTRF assay

Beta-secretase 1 [6] = molecular target: T1, Beta-secretase 1; assay: Inhibition of BACE1 mediated hydrolysis of human amyloid precursor protein with Swedish and London mutation in HEK293 cells by ELISA; format: cell-based
Cathepsin D [7] = molecular target: T2, Cathepsin D; assay: Inhibition of human cathepsin D preincubated for 30 mins
Beta-secretase 1 [8] = molecular target: T1, Beta-secretase 1; assay: Inhibition of BACE1 by fragment-based NMR screening method

T1 sequence (P56817 whole entry): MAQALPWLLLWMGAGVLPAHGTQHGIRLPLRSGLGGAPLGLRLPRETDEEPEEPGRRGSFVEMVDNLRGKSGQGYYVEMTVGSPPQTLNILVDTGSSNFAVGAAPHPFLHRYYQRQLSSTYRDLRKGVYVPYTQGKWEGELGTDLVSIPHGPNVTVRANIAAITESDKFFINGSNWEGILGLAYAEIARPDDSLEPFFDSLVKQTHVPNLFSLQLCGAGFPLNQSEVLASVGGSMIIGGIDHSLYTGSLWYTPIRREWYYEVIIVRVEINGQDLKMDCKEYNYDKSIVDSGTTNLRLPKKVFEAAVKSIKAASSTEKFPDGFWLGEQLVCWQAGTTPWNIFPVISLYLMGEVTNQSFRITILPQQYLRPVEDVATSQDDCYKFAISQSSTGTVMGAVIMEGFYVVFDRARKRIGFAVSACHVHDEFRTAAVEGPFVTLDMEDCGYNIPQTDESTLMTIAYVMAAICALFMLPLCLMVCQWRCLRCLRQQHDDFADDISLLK

Molecule `CC1(C)C(=O)NC(=N)N1CCc1cccc(Cl)c1` has a pKa [1] of 4.4.
Work on `CC(C)CC1(C)C(=O)NC(=N)N1Cc1cccc(Cl)c1` (stereo not drawn) yielded an inhibition (Beta-secretase 1 [2]) of 6%.
Molecule `CN1C(=O)C(c2ccccc2)(c2ccccc2)N=C1N` has a Kp [3] of 1.8, an inhibition (Cathepsin D [4]) of 38% and an AUC (in vivo) of 5 µM·h.
For `CC(C)CC1(C)NC(=N)N(Cc2ccc(CNC(=O)Nc3ccc(C#N)cc3)cc2)C1=O` (racemic), the IC50 (Beta-secretase 1 [5]) was 7 µM.
With `CCCCNC(=O)NCc1ccc(CN2C(=N)NC(CCC3CCCCC3)(CC3CCCCC3)C2=O)cc1` (stereo not drawn) the IC50 (Beta-secretase 1 [5]) was 0.35 µM.
`CCCCNC(=O)NCc1ccc(CN2C(=N)NC(C)(CC3CCCCC3)C2=O)cc1` (racemic) showed an IC50 (Beta-secretase 1 [5]) of 5 µM.
In the case of `CCCCNC(=O)NCc1ccc(CN2C(=N)NC(CCC3CCCCC3)(CC(C)C)C2=O)cc1` (racemic), the IC50 (Beta-secretase 1 [5]) is reported as 3 µM.
`CCCCNC(=O)NCc1ccc(CN2C(=N)NC(CC3CCCCC3)(CC3CCCCC3)C2=O)cc1` showed an IC50 (Beta-secretase 1 [5]) of 2.1 µM.
`CCCCNC(=O)NCc1ccc(CN2C(=N)NC(C)(Cc3ccccc3)C2=O)cc1` (racemic) showed an inhibition (Beta-secretase 1 [2]) of 64%.
For `CCCCNC(=O)NCc1ccc(CN2C(=N)NC(C)(CC(C)C)C2=O)cc1` (stereo not drawn), the IC50 (Beta-secretase 1 [5]) was 78 µM.
`CN1C(=N)N[C@](CCC2CCCCC2)(CC2CCCCC2)C1=O` gave an IC50 (Beta-secretase 1 [6]) of 2.6 µM, a Kp [3] of 0.9 and a Ki (Cathepsin D [7]) of 0.74 µM. It also gave an IC50 (Beta-secretase 1 [5]) of 0.605 µM and an AUC (in vivo) of 1 µM·h.
Work on `CCCCNC(=O)NCc1ccc(CN2C(=N)NC(CCc3ccccc3)(CC(C)C)C2=O)cc1` (racemic) yielded an IC50 (Beta-secretase 1 [5]) of 50 µM.
`CC1(C)NC(=N)N(Cc2cccc(Cl)c2)C1=O` gave a Kd (Beta-secretase 1 [8]) of 200 µM and an inhibition (Beta-secretase 1 [2]) of 19%.
In the case of `CC(C)CC1(C)NC(=N)N(Cc2cccc(Cl)c2)C1=O` (stereo not drawn), the Kd (Beta-secretase 1 [8]) is reported as 123 µM, the inhibition (Beta-secretase 1 [2]) is reported as 55% and the pKa [1] is reported as 7.2.
